This is an account of results in ChEMBL document CHEMBL1147504, “Synthesis of methylphenidate analogues and their binding affinities at dopamine and serotonin transport sites” (Bioorg Med Chem Lett, 2004).

Assay [1] has as its target Sodium-dependent serotonin transporter (Rattus norvegicus, UniProt P31652). Kind of assay: Ability to displace 0.4 nM [3H]paroxetine binding to serotonin transporter in rat frontal cortex. In kind it is tissue-based.
For assay [2], the target named is T1, Sodium-dependent dopamine transporter (Rattus norvegicus, UniProt P23977).
T1 sequence (P23977 whole entry): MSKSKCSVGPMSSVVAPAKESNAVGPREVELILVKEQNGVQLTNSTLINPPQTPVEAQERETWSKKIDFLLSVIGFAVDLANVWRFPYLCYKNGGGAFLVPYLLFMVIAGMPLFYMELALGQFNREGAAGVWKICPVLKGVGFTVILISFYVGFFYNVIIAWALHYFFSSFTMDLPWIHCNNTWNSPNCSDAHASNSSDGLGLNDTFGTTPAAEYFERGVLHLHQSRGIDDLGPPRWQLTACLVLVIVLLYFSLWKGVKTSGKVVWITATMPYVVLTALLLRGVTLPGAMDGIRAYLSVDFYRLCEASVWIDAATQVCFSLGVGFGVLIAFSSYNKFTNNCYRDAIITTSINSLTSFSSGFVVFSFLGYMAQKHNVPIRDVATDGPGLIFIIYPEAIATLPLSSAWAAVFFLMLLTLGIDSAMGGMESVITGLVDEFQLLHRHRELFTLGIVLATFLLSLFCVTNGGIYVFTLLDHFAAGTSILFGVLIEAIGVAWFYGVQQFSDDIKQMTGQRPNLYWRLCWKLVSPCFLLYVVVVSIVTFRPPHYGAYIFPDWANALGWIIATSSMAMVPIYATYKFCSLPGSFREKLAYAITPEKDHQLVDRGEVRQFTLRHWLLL
Description: Potency of inhibiting 10 pM [125I]RTI-55 binding to dopamine transporter in rat striatal membranes
The target in assay [3] is Dopamine receptor.
Description: Potency of inhibiting 10 pM [125I]-RTI-55 binding to dopamine receptor in rat striatal membranes
Assay [4] can be described thus: […]. In kind it is tissue-based, Frontal cortex.
The target in assay [5] is Dopamine receptor. Briefly: Potency of inhibiting [3H]WIN-35428 binding to […] in rat striatal membranes. The format is cell membranes, Membrane.
For assay [6], the target named is T1, Sodium-dependent dopamine transporter. Briefly: Inhibitory activity against dopamine transporter in rat striatal membranes. The format is cell membranes, Striatum, Membrane.

Sodium-dependent serotonin transporter, sequence (P31652 whole entry): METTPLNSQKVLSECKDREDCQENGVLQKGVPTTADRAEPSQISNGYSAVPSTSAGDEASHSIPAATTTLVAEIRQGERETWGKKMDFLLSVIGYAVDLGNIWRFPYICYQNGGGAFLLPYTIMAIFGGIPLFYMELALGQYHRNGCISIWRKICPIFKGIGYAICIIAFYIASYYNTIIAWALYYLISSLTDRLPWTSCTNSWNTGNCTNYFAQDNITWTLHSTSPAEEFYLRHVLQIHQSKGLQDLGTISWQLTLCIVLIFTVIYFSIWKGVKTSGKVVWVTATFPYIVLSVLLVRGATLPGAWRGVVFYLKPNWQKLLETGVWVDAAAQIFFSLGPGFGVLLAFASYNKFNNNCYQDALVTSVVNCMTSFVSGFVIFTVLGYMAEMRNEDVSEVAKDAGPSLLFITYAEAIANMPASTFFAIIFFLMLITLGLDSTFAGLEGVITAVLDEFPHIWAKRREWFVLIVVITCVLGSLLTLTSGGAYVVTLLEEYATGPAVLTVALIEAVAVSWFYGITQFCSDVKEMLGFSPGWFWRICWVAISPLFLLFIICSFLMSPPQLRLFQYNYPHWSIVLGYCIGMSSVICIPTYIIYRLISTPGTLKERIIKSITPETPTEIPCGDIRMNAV

For the molecule `COC(=O)[C@H](c1ccc2cc(Br)ccc2c1)[C@@H]1CCCN1`, the Ki in assay [1] amounted to 5.5 nM. Half-maximal inhibition in assay [2] (IC50) required 446 nM.

On to `COC(=O)[C@H](c1ccc(C)cc1)[C@H]1CCCCN1.Cl` (racemic), for which the IC50 against Dopamine receptor [3] came to 114 nM; on Dopamine receptor [5], 33 nM. This molecule returned a Ki in assay [4] of more than 10000 nM.

`COC(=O)[C@H](c1ccc(Cl)cc1)[C@H]1CCCCN1.Cl` (racemic): the IC50 against Dopamine receptor [3] is recorded as 91.2 nM; on Dopamine receptor [5] it was 20.6 nM. The molecule also came in with a Ki in assay [4] of 2220 nM.

Molecule `COC(=O)[C@H](c1ccc2ccccc2c1)[C@@H]1CCCCN1.Cl` (racemic) registered an IC50 at Dopamine receptor [3] of 2080 nM. Besides, in assay [4], the Ki was 105 nM.

In turn, `COC(=O)[C@H](c1ccc2cc(Br)ccc2c1)[C@@H]1CCCN1` (racemic) gave a Ki in assay [1] of 11.4 nM. Moreover, the IC50 in assay [2] is 195 nM.

In assay [1], `COC(=O)[C@H](c1ccc2cc(C)ccc2c1)[C@@H]1CCCN1` (stereo in doubt) came in with a Ki of 2.3 nM. Besides, 850 nM corresponded to half-maximal inhibition in assay [2] (IC50).

The molecule `COC(=O)[C@H](c1ccc2cc(OC)ccc2c1)[C@@H]1CCCN1` displayed a Ki in assay [1] of 54.6 nM.

In assay [1], `COC(=O)[C@H](c1ccc(C)cc1)[C@H]1CCCN1` (racemic) displayed a Ki of more than 10000 nM. Besides, in assay [2], half-maximal inhibition (IC50) was put at 1930 nM.

As to `COC(=O)[C@H](c1ccccc1)[C@H]1CCCCN1.Cl` (racemic) [DEXMETHYLPHENIDATE HYDROCHLORIDE], the IC50 at Dopamine receptor [3] came to 164 nM; on Dopamine receptor [5], 83 nM. This molecule had a Ki in assay [4] of more than 10000 nM.

Molecule `COC(=O)[C@H](c1ccccc1)[C@@H]1CCCCN1.Cl` (racemic) came in with an IC50 at Dopamine receptor [3] of more than 1000 nM. In assay [4], this molecule displayed a Ki of more than 10000 nM.

For `COC(=O)[C@H](c1ccc(-c2ccccc2)cc1)[C@@H]1CCCCN1.Cl` (racemic), the IC50 at Dopamine receptor [3] stood at 6470 nM. The Ki in assay [4] is more than 10000 nM.

Regarding `COC(=O)[C@H](c1ccc(C)cc1)[C@@H]1CCCCN1.Cl` (racemic), the IC50 against Dopamine receptor [3] came to 7430 nM. Moreover, in assay [4], the Ki was more than 10000 nM.

In assay [1], `COC(=O)[C@H](c1ccc(C)cc1)[C@@H]1CCCN1` (racemic) showed an inhibition constant (Ki) of more than 10000 nM. Further, the 50% inhibitory concentration (IC50) in assay [2] is more than 1000 nM.

`COC(=O)[C@H](c1ccc(Cl)c(Cl)c1)[C@@H]1CCCCN1.Cl` (racemic): on Dopamine receptor [3], the IC50 amounted to 33.8 nM. Further, the Ki in assay [4] is more than 10000 nM.

In turn, `COC(=O)[C@H](c1ccc(Br)cc1)[C@@H]1CCCN1` (racemic) returned a Ki in assay [1] of more than 10000 nM. Also, the midpoint of inhibition in assay [2], the IC50, lay at 637 nM.

With `COC(=O)[C@H](c1ccc2cc(OC)ccc2c1)[C@@H]1CCCN1` (racemic), affinity in assay [1] was put at a Ki of 245 nM.

Regarding `COC(=O)[C@H](c1ccccc1)[C@@H]1CCCN1` (racemic), the Ki in assay [1] is more than 10000 nM. In addition, the IC50 in assay [2] was more than 1000 nM.

Consider `COC(=O)[C@H](c1ccc(-c2ccccc2)cc1)[C@H]1CCCCN1.Cl` (racemic), for which, on Dopamine receptor [3], the IC50 is recorded as 1020 nM. Besides, in assay [4], the Ki is more than 10000 nM.

In the case of `COC(=O)[C@H](c1ccc2ccccc2c1)[C@@H]1CCCN1` (racemic), the Ki in assay [1] was 4 nM. For the same molecule, inhibition in assay [2] was half-maximal at 805 nM (IC50).

`COC(=O)[C@@H](c1ccc2ccccc2c1)[C@H]1CCCN1` displayed a Ki in assay [1] of 2020 nM.

`COC(=O)[C@H](c1ccc(Cl)cc1)[C@@H]1CCCN1` (racemic) had a Ki in assay [1] of 1900 nM. Further, the IC50 in assay [2] was more than 1000 nM.

On to `COC(=O)[C@H](c1ccccc1)[C@H]1CCCN1` (racemic), for which the inhibition constant (Ki) in assay [1] is more than 10000 nM. In addition, the figures for the IC50 in assay [6] and in assay [2] were 1340 nM and 3160 nM, respectively.

Turning to `COC(=O)[C@H](c1ccc2cc(C)ccc2c1)[C@@H]1CCCN1` (stereo in doubt; 10i), the Ki in assay [1] stood at 3.2 nM. The IC50 in assay [2] was determined as 1410 nM.

Regarding `COC(=O)[C@H](c1ccc2ccccc2c1)[C@H]1CCCCN1.Cl`, the IC50 against Dopamine receptor [3] worked out at 11.1 nM. The molecule further came in with a Ki in assay [4] of 94.8 nM.

Turning to `COC(=O)[C@H](c1ccc(Cl)cc1)[C@H]1CCCN1` (racemic), the Ki in assay [1] is 1080 nM. The same molecule returned an IC50 in assay [2] of 272 nM.

The molecule `COC(=O)[C@H](c1ccc(Cl)cc1)[C@@H]1CCCCN1` (racemic) displayed an inhibitory constant (Ki) in assay [4] of more than 10000 nM.

`COC(=O)[C@H](c1ccc2ccccc2c1)[C@H]1CCCCN1` (racemic): in assay [4], the Ki was determined as 71.6 nM. This counts as double-digit nanomolar.

`COC(=O)[C@H](c1ccc(Cl)c(Cl)c1)[C@H]1CCCCN1.Cl` (racemic): the IC50 against Dopamine receptor [3] is recorded as 2.67 nM; at Dopamine receptor [5], 5.3 nM. In addition, in assay [4], the Ki was more than 10000 nM.

The molecule `COC(=O)[C@H](c1ccc2ccccc2c1)[C@@H]1CCCN1` had a Ki in assay [1] of 2.5 nM. The molecule also gave a 50% inhibitory concentration (IC50) in assay [2] of 465 nM.
